We go through three compounds from patent US9980509B2, “Modification of bacterial profile of tobacco” (R.J. REYNOLDS TOBACCO COMPANY, priority 2013, dated 2018).

One assay deals with Lactobacillus. Description: Lactobacillus (anaerobic) counts on MRS from field-treated tobacco leaf. In kind it is in vivo. The procedure: (§1) Dark-air cured tobacco is treated five hours prior to harvest with one or more of a probiotic bacteria solution, and enzyme solution, and/or a 3% sodium chloride salt solution. The solution is applied using a backpack sprayer. Solutions are based on a 100 gallon solution per acre, using recommended plant spacings and dose per plant is provided below.
(§2) The treated tobacco is harvested and mid-stalk leaf samples are analyzed for total bacteria counts, enteric bacteria counts, and Lactobacillus counts. Ten grams of each treated tobacco sample is placed in Butterfields Phosphate Buffer and diluted 10^−2 to 10^−8 times with water. The treated tobacco sample dilutions are applied to plate count agar (PCA) for total aerobic bacteria counts, to violet red bile agar (VRBA) for gram negative bacteria counts, and to MRS for anaerobic (Lactobacillus) counts. The number of bacterial colonies, as visualized under magnification, are counted to estimate the total number of colony-forming units per gram, CFU/g.

The subject of assay [1] is enteric bacteria (gram negative bacteria). Description: Enteric bacteria counts (violet red bile agar) on field-treated tobacco leaf. In kind it is in vivo. As to conditions: dark-air cured tobacco treated five hours prior to harvest; based on total bacteria counts before and after treatment. The procedure:
as §1, §2

The next assay has as its system total aerobic bacteria. The assay can be described thus: Total bacteria counts (plate count agar) on field-treated tobacco leaf. As to conditions: dark-air cured tobacco treated five hours prior to harvest; based on total bacteria counts before and after treatment. In kind it is in vivo. The method, then: as §1, §2
A further assay has as its system Dark tobacco plants. As to conditions: for NNN content relative to the level of quantification: potassium chloride-treated samples 1, 2, 3, 5, and 6; for NNN content relative to the level of quantification / NAT content relative to the level of quantification: all potassium sulfate-treated samples; for NAT content relative to the level of quantification: potassium chloride-treated samples 3, 5, and 6.

Protocol for Dark tobacco plants: A first, 0.5 acre unplanted plot of soil was treated with a nitrogen-containing fertilizer comprising urea (N—P—K: 46-0-0) at a rate of 150 pounds per acre and a fertilizer incorporating diammonium phosphate and phosphorus (N—P—K: 18-46-0) at a rate of 180 pounds per acre by broadcast application. […] All fertilizer applications were incorporated into the soil after application.
A second, 0.5 acre unplanted plot of soil was treated with a nitrogen-containing fertilizer comprising urea (N—P—K: 46-0-0) at a rate of 150 pounds per acre and a fertilizer incorporating diammonium phosphate and phosphorus (N—P—K: 18-46-0) at a rate of 180 pounds per acre by broadcast application. The following day, a potassium chloride fertilizer (N—P—K: 0-0-60) was broadcast applied at 180 pounds per acre. All fertilizer applications were incorporated into the soil after application.
Dark tobacco plants were independently grown and were transplanted as seedlings (approximately 6-10 inches in length) to both plots (with 2450 plants per fertilized plot) four days after application of the potassium sources to the soil. […] The tobacco plants from both plots were harvested about three months after UAN treatment, and the harvested plants were moved to a traditional 1-acre air-curing barn. The plants were cured in the barn for about a month and a half.
After curing the plants, the leaves were removed from the stalks. The fourth leaf from the upper stalk position of six plants from each plot was taken for analysis. Each of these twelve leaves was prepared by removing the mid-rib stem from the leaf lamina.
The lamina was milled and the content of certain components was evaluated by liquid chromatography-mass spectrometry (LCMS). In particular, the leaves were analyzed in triplicate for TSNA content (namely, NNN, NNK, NAT, and NAB content).

As to `[Cl-].[Na+]` [3% NaCl solution, sodium chloride], the “Lactobacillus increase after treatment” value in the assay with Lactobacillus (dark-air cured tobacco treated five hours prior to harvest, based on total bacteria counts before and after treatment) is given as “greater than 400%”. Further, the “Lactobacillus bacteria change after treatment” value in the assay on Lactobacillus (treated tobacco material, Example 1) is “significant increase”. Moreover, the “enteric bacteria reduction after treatment” value in assay [1] was 76%. Moreover, the “total bacteria reduction after treatment” value in the assay with total aerobic bacteria turned out to be 94%.
As to `[Cl-].[K+]` [Potassium Chloride, potassium chloride], in the assay on Dark tobacco plants (all cured leaf samples tested), the “NAT content compared with potassium sulfate treatment” value is given as “significant decreases” and the “NNN content compared with potassium sulfate treatment” value is recorded as “significant decreases”. Besides, in the assay with Dark tobacco plants (cured leaf samples), the “average decrease NAT with respect to the potassium sulfate-treated samples” value is listed as “about 77%” and the “average decrease NNN with respect to the potassium sulfate-treated samples” value is on record as “about 69%”. Further, the “TSNA levels, particularly NNN and NNK, compared with leaves from potassium sulfate-treated soil” value in the assay on Dark tobacco plants (cured leaves) is listed as “significantly lower”. For the same compound, in the assay on Dark tobacco plants, the “NNN content relative to the level of quantification” value is given as “below the level of quantification” and the “NAT content relative to the level of quantification” value is listed as “below the level of quantification”.
With `O=S(=O)([O-])[O-].[K+].[K+]` [Potassium Sulfate, potassium sulfate, reference compound], in the assay with Dark tobacco plants, the “NNN content relative to the level of quantification” value is given as “well above such levels” and the “NAT content relative to the level of quantification” value is on record as “well above such levels”.
